The assay relates to Intracellular Adenosine. The class given is in vivo, rat.

Structures are written as SMILES.

With `Nc1nc(=O)c2c([nH]1)NCC(CNc1ccc(C(=O)N[C@@H](CCC(=O)O)C(=O)O)cc1)N2C=O` (mixture of isomers) [Follinic Acid (F.A.), folinic acid], under “rat, in vivo, po”, the “Adenosine levels in the heart, lung and brain” value is on record as “dramatic increase in adenosine levels”. Also, the “Effect of co-administration of folinic acid on adenosine depletion” value (rats, co-administered with the depleting agent) is listed as “completely abrogated adenosine depletion”. Where the note is “rats, folinic acid alone, all organs studied”, the “Effect of folinic acid administered alone on adenosine levels” value is reported as “increase in adenosine levels for all organs studied”.

The record behind these values is patent US20030181353A1, “Composition & use as analgesic, anti-inflammatory, wound healing agent, for treatment of heart conditions, assessment of heart function & tissue & cell protection & healing & reperfusion, mood disorders & symptoms & sequelae of menopause & for inducing unconsciousness, sleep & anesthesia” (priority 1998, published 2003).
